Measured values as given in US4061757A, “Compounds having juvenile hormone activity” (A/S Cheminova, priority 1971, dated 1977).

Columns and labels:
Culex pipiens L = experiment: Culex test (mature larvae, loss of 50% of test animals); type: in vivo; settings: Table I, read-out: IC-50 eclos.
Method: The biological tests are examplified by tests on the yellow mealworm, Tenebrio molitor L, Galleria mellonella L, Culex pipiens L, Aedes aegypti L and Drosophila melanogaster L. Culex test: The compounds are tested on mature larvae. The concentration (IC-50 eclos.) is given in ppm.

Aedes aegypti L = experiment: Aedes test (same test as for Culex); type: in vivo; settings: Table I, mature larvae, loss of 50% of test animals, read-out: IC-50 eclos
Method: (§1) The biological tests are examplified by tests on the yellow mealworm, Tenebrio molitor L, Galleria mellonella L, Culex pipiens L, Aedes aegypti L and Drosophila melanogaster L.
Culex test: The compounds are tested on mature larvae. The concentration (IC-50 eclos.) is given in ppm.
Aedes test: The same test as for Culex.

[1] = system: Drosophila melanogaster L; experiment: Drosophila test (compound in agar based food, pupae which fail in ecdysis); type: in vivo; settings: Table I, in artificial agar based food, pupae failing in ecdysis
Method: as §1
Drosophila test: One ml of acetone solution of the compound to be tested is mixed with an artificial agar based food mixture just before this solidifies. Ten less than one day old adult flies -- five of each sex -- are added, and all abnormalities observed for two generations. Juvenile hormone activity is especially noted in the pupae which fail in ecdysis. EC50 -eclos. is given in ppm.

Tenebrio molitor L = experiment: Tenebrio test (topical application to pupae, morphological inhibition of adult characters); type: in vivo, Tenebrio molitor L (yellow mealworm); settings: for ID-50 morph.: Table I, topical, acetone solution, 0.5 to 2 hours old pupae (150 mg), 27° C, 70% RH; for ID 50 morph.: Table II, compounds of the formula I, Tenebrio
Method: as §1
Tenebrio test: The material in question is applied topically to the abdomen of 0.5 to 2 hours old pupae of the said species, as a solution in acetone. The pupae are held at 27° C and 70% RH, ecdysis occuring 5 to 7 days later. The degree of inhibition of adult characters is referred to an arbitrary scale, where a morphologically perfect adult is given the character 0%, and a perfect second pupae 100%. In Table 1 is given the morphological inhibition dose 50% (ID 50 morph.) for some of the chemicals invented, in μg per standard pupa (150 mg). ID 50 morph. refers to specimens showing predominantly adult characters in the front part, pupal characters in the abdomen.
ID50 morph is as said above the dose causing development of individuals showing predominantly adult characters in the front part and pupal characters in the abdomen. It is known that ID50 -doses in general are 10 times greater than ED50 -doses.

Structure (SMILES) | IC50 for inhibition of adult emergence (eclosion) (Culex pipiens L) [µg/mL] | IC50 (inhibition of eclosion) (Aedes aegypti L) [µg/mL] | EC-50 eclos [1] [ppm] | ID-50 morph. (Tenebrio molitor L) [μg/pupa] | ID 50 morph. (Tenebrio molitor L)
CC(C)=CCC/C(C)=C/COc1ccc(C)nc1 [Compound 1, 3,7-dimethyl-1-(6'-methyl-3'-pyridyl-oxy)-2,6-octadiene] | 0.5 | 0.5 | > 100 | 0.02 | 0,02 μg/150 mg pupa
C/C(=C\COc1ccc(C)nc1)CCC1OC1(C)C (stereo not shown) [Compound 2, 6,7-epoxy-3,7-dimethyl-1-(6'-methyl-3'-pyridyloxy)-2-octene] |  | 0.1 |  | 0.002 | 
CCOC(C)(C)CCC/C(C)=C/COc1ccc(C)nc1 [Compound 3, 7-ethoxy-3,7-dimethyl-1-(6'-methyl-3'-pyridyloxy)-2-octene] | < 10 |  |  | 0.001 | 
C/C(=C\COc1ccc(C)nc1)CCCC(C)(C)O [Compound 4, 7-hydroxy-3,7-dimethyl-1-(6'-methyl-3'-pyridyloxy)-2-octene] |  |  |  | 4.0 | 
CC(C)=CCC/C(C)=C/CNc1cccnc1 [Compound 5, N,3'-3,7-dimethyl-2,6-octadienyl-1-(3'-a-minopyridine)] | 10 |  |  | 40.0 | 
CC(C)=CCCC(C)=CCOc1cccnc1 [Compound 6, 3,7-Dimethyl-1-(3'-pyridyloxy)-2,6-octadiene] |  |  |  | 3.0 | 
CCc1ccc(OCC=C(C)CCC=C(C)C)cn1 [Compound 7, 3,7-Dimethyl-1-(6'-ethyl-3'-pyridyloxy)-2,6-octadiene] | 0.05 |  | > 100 | 0.005 | 
CC(C)=CCCC(C)=CCOc1ccc(C(C)C)nc1 [Compound 8, 3,7-Dimethyl-1-(6'-isopropyl-3'-pyridyloxy)-2,6-octadiene] |  |  |  | 0.004 | 
COc1ccc(OCC=C(C)CCC=C(C)C)cn1 [Compound 9, 3,7-Dimethyl-1-(6'-methoxy-3'-pyridyloxy)-2,6-acetadiene] |  |  |  | 0.02 | 0,02 μg/150 mg pupa
CCC(C)=CCCC(=CCOc1ccc(C)nc1)CC [Compound 10, 3-Ethyl-7-methyl-1l-(6'-methyl-3'-pyridyloxy)-2,6-nonadiene] |  |  |  | 0.002 | 
CCC(C)=CCCC(=CCOc1ccc(CC)nc1)CC [Compound 11, 3-EThyl-7-methyl-1-(6'-ethyl-3'-pyridyloxy)-2,6-nonadiene] |  |  |  | 0.001 | 
CC(=CCOc1cccnc1)CCC1OC1(C)C (stereo not shown) [Compound 12, 6,7-Epoxy-3,7-dimethyl-1l-(3'-pyridyloxy)-2-ocetene] |  |  |  | 0.2 | 
CCc1ccc(OCC=C(C)CCC2OC2(C)C)cn1 (stereo not shown) [Compound 13, 6,7-Epoxy-3,7-dimethyl-1l-(6'-ethyl-3'-pyridyloxy)-2l-octene] | 0.005 | 0.1 | > 100 | 0.0001 | 
CCC(=CCOc1ccc(C)nc1)CCC1OC1(C)CC (stereo not shown) [Compound 14, 6,7-Epoxu-3-ethyl-7-methyl-1-(6'-methyl-3'-pyridyloxy)-2-nonene] |  |  |  | 0.002 | 
CCC(=CCOc1ccc(CC)nc1)CCC1OC1(C)CC (stereo not shown) [Compound 15, 6,7 Epoxy-3-ethyl-7-methyl-1-(6'-ethyl-3'-pyridyloxy)-2l-nonene] |  |  |  | 0.0001 | 
CCOC(C)(C)CCCC(C)=CCOc1cccnc1 [Compound 16, 7-Ethoxy-3,7-dimethyl-1-(3'-pyridyloxy)-2-octene] |  |  |  | 0.009 | 
COc1ccc(NCC=C(C)CCC=C(C)C)cn1 [Compound 17, N, 3'-3,7-Dimethyl-2,6-octadienlyl-(6'methoxy-3'-aminopyridin)] |  |  |  | 0.4 | 
CCC(C)=CCCC(=CCOc1cccnc1)CC [Compound 18, 3-Ethyl-7-methyl-1-(3'-pyridyloxy)-2,6-nonadiene] |  |  |  | 0.2 | 
CCC(=CCOc1cccnc1)CCC1OC1(C)CC (stereo not shown) [Compound 19, 6,7-Epoxy-3-ethyl-7-methyl-1-(3'-pyridyloxy)-2-nonene] |  |  |  | 0.02 | 

Structure (SMILES) | IC50 for inhibition of adult emergence (eclosion) (Culex pipiens L) [µg/mL] | IC50 (inhibition of eclosion) (Aedes aegypti L) [µg/mL] | EC-50 eclos [1] [ppm] | ID-50 morph. (Tenebrio molitor L) [μg/pupa] | ID 50 morph. (Tenebrio molitor L)
COC(C)(C)CCCC(C)=CCOc1cccnc1 [Compound 20, 7-Methoxy-3,7-dimethyl-1l-(3'-pyridyloxy)-2-ocetene] |  |  |  | 1.0 | 
COC(C)(C)CCCC(C)=CCOc1ccc(C)nc1 [Compound 21, 7-Metoxy-3,7-dimethyl-1-(6'-methyl-3'-pyridyloxy)-2-octene] | < 10 | 1 |  | 1.0 | 
CCOC(C)(CC)CCCC(=CCOc1cccnc1)CC (stereo not shown) [Compound 22, 7-Ethoxy-3-ethyl-7-methyl-1-(3'-pyridyloxy)-2-nonene] |  |  |  | 0.01 | 
CCOC(C)(CC)CCCC(=CCOc1ccc(C)nc1)CC (stereo not shown) [Compound 23, 7-Ethoxy-3-ethyl-7-methyl-1l-(6'-methyl-3'-pyridyloxy)-2-nonene] | 0.5 |  |  | 0.001 | 
CC(C)=CCCC(C)=CCOc1ccc(C)nc1[N+](=O)[O-] [Compound 24, 3,7-Dimethyl-1l-(2'-nitro-6'-methyl-3'-pyridyloxy)-2,6-octadiene] | > 10 |  |  | 75. | 
CC(C)=CCCC(C)=CCOc1cccnc1CO [Compound 25, 3,7-Dimethyl-1-(2'-hydroxymethyl-3'-pyridyloxy)-2,6-octadiene] |  |  |  | 10. | 
CC(C)=CCCC(C)=CCOc1cccnc1C [Compound 26, 3,7 Dimethyl-1-(2'-methyl-3'-pyridyloxy)-2,6-octadiene] |  |  |  | 10. | 
CCOC(C)(C)CCCC(C)=CCOc1ccc(CC)nc1 [Compound 27, 7-Ethoxy-3,7-dimethyl-1-(6'-ethyl-3'-pyridyloxy)-2-octene] | < 1 |  | > 100 | 0.0001 | 
CCc1ccc(OCC=C(C)CCCC(C)(C)OC)cn1 [Compound 28, 7-Methoxy-3,7-dimethyl-1-(6'-ethyl-3'-pyridyloxy)-2-octene] |  |  |  | 0.001 | 
CCC(C)=CCCC(C)=CCOc1ccc(CC)nc1 [Compound 29, 3,7-Dimethyl-1-(6'-ethyl-3'-pyridyloxy)-2,6-nonadiene] |  |  | > 100 | 0.02 | 
CCc1ccc(OCC=C(C)CCC2OC2(C)CC)cn1 (stereo not shown) [Compound 30, 6,7-Epoxy-3,7-dimethyl-1l-(6'-ethyl-3'-pyridyloxy)-2l-nonene] | < 10 | 0.5 | > 100 | 0.0003 | 
CC(C)=CCCC(C)=CCOc1ccc(C)nc1CO [Compound 31, 3,7-Dimethyl-1-(2'-hydroxymethyl-6'-methyl-3'pyridyloxy)-2,6-octadiene] | > 10 |  |  | 10 | 
CC(C)=CCCC(C)CCOc1cccnc1 (stereo not shown) [Compound 32, 3,7-Dimethyl-1-(3'-pyridyloxy)-6-octene] | 0.2 |  |  | 5. | 
CC(C)=CCCC(C)CCOc1ccc(C)nc1 (stereo not shown) [Compound 34, 3,7-dimethyl-1-(6'-methyl-3'-pyridyloxy)-6-octene] | 0.5 |  |  | 0.4 | 
Cc1ccc(OCCC(C)CCC2OC2(C)C)cn1 (stereo not shown) [Compound 35, 6,7-epoxy-3,7-dimethyl-1-(6'-methyl-3'pyridyloxy)-octane] |  |  |  | 0.05 | 
CCOC(C)(C)CCCC(C)CCOc1ccc(C)nc1 (stereo not shown) [Compound 36, 7-Ethoxy-3,7-dimethyl-1-(6'-methyl-3'-pyridyloxy)-octane] |  |  | > 100 | 0.05 | 
CCc1ccc(OCCC(C)CCC=C(C)C)cn1 (stereo not shown) [Compound 37, 3,7-dimethyl-1-(6'-ethyl-3'-pyridyloxy)-6-octene] |  |  | > 100 | 0.2 | 
CCc1ccc(OCCC(C)CCC2OC2(C)C)cn1 (stereo not shown) [Compound 38, 6,7-Epoxu-3,7-dimethyl-1l-(6'-ethyl-3'-pyridyloxy)-octane] | < 10 | < 1 | > 100 | 0.005 | 
CCc1ccc(OCCC(C)CCCC(C)(C)OC)cn1 (stereo not shown) [Compound 40, 7-Methoxy-3,7-dimethyl-1l-(6'-ethyl-3'-pyridyloxy)-octane] |  |  | > 100 | 0.02 | 
